SMILES strings stand for the structures. Calls of active or inactive are those of the source. The calls are words filed in the database; no cut-off is given here.

Broadly, the IC50 is the concentration that inhibits the measured activity by half.

In data set [1] the test system is DU-145. Nature of the data set: Antitumor activity against human DU-145 cells xenografted in Balb/c mouse assessed as reduction in tumor weight at 10 mg/kg,ip administration once every 2 days for 20 days. It is filed as functional, organism-based. The conditions noted are these: time 20.0 day. For orientation: Xenograft models place foreign cells or tissue in a host animal.

The next data set addresses Histone deacetylase 1 (Homo sapiens, UniProt Q13547). Nature of the data set: Inhibition of HDAC1 (unknown origin) preincubated with compound for 30 mins followed by substrate addition measured after 15 mins by fluorescence based assay.
Data set [2] is described as follows: Drug uptake in Balb/c mouse xenografted with human DU-145 cells assessed as increase in fluorescence intensity in tumor tissue at 0.5 mg/kg,ip administration and measured at 17 hrs by imaging analysis. The format is ADME, organism-based, Neoplasm. Conditions: in vivo.
Data set [3] can be described thus: Drug uptake in Balb/c mouse xenografted with human DU-145 cells assessed as increase in fluorescence intensity in tumor tissue at 0.5 mg/kg,ip administration and measured at 24 hrs by imaging analysis. It is filed as ADME, organism-based, Neoplasm. Conditions: in vivo.
A short description of data set [4]: Drug uptake in human DU-145 cells assessed as colocalization in […] by measuring fluorescence signal at 10 uM incubated for 30 mins by Mito-Tracker Green staining based fluorescence imaging analysis. The format is ADME, cell-based. The conditions noted are these: du-145, 0.5 h.
Data set [5] is described as follows: Drug uptake in Balb/c mouse xenografted with human DU-145 cells assessed as increase in fluorescence intensity in kidney at 0.5 mg/kg,ip administration and measured at 17 hrs by imaging analysis. It is filed as ADME, organism-based. Conditions: in vivo.
A short description of data set [6]: Drug uptake in Balb/c mouse xenografted with human DU-145 cells assessed as increase in fluorescence intensity in tumor at 0.5 mg/kg,ip administration and measured at 12 hrs by imaging analysis. The format is ADME, organism-based. Conditions: in vivo.
In data set [7] the target is T1, Protein deacetylase HDAC6 (Homo sapiens) (UniProt Q9UBN7).
T1 sequence (whole entry): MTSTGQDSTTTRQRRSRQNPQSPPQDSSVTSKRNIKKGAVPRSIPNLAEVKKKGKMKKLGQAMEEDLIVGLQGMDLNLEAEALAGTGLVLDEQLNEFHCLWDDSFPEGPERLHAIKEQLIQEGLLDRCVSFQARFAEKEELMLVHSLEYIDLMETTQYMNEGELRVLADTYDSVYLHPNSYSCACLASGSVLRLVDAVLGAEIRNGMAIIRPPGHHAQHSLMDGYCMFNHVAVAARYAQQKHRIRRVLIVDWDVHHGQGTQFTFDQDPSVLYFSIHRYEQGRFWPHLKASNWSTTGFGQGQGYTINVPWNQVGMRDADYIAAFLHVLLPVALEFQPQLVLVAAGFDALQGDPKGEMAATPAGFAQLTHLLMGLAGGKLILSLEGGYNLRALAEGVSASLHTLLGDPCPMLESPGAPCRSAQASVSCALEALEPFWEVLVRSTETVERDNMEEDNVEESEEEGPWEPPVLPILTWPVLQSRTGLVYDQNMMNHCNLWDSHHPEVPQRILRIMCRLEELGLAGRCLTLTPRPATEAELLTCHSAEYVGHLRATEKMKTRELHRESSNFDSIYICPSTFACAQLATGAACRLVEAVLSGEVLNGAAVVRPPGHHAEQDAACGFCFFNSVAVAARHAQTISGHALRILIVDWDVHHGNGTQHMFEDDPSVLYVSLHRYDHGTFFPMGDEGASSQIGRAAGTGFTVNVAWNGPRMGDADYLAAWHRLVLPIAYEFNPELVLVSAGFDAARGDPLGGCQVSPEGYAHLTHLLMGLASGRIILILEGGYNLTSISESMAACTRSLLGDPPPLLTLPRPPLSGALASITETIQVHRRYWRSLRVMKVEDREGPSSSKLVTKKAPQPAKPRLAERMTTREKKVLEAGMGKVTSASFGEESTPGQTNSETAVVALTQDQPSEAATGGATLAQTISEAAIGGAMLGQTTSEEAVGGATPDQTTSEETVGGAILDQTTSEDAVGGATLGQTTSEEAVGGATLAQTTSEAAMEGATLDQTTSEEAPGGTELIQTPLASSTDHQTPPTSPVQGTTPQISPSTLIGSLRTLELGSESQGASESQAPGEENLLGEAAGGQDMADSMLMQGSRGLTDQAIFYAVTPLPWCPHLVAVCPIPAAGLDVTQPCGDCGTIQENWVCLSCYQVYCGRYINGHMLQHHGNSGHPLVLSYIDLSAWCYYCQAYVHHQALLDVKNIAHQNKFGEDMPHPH
The data set is described as follows: Binding affinity to HDAC6 in human DU-145 cells at 10 uM incubated for 30 mins by Alexa Fluor 488 staining based immunofluorescence based assay. The format is cell-based. Conditions: filed as agonist.

Data set [8] has as its system DU-145. The data set is described as follows: cells. The format is functional, cell-based. The conditions noted are these: Homo sapiens.
Description: Antiproliferative activity against human DU-145 cells assessed as inhibition of cell growth incubated for 3 to 5 days by CCK-8 assay
A short description of data set [9]: Drug uptake in Balb/c mouse xenografted with human DU-145 cells assessed as increase in fluorescence intensity in tumor tissue at 0.5 mg/kg,ip administration and measured at 36 hrs by imaging analysis. It is filed as ADME, organism-based, Neoplasm. Conditions: in vivo.
Data set [10] concerns the target T2, Protein deacetylase HDAC6 (Homo sapiens, UniProt Q9UBN7).
T2 sequence (Q9UBN7 whole entry): T1 sequence (whole entry)
The data set is described as follows: Inhibition of HDAC6 (unknown origin) preincubated with compound for 30 mins followed by substrate addition measured after 15 mins by fluorescence based assay.

A further data set is described as follows: in vitro. Conditions: green monkey (Chlorocebus sabaeus), Vero cells.
Data set [11] addresses Estrogen receptor beta (Homo sapiens) (UniProt Q92731). Nature of the data set: Binding affinity to ERbeta in human DU-145 cells assessed as increase in intracellular fluorescence signal at 10 uM incubated for 30 mins by imaging analysis. The conditions noted are these: filed as agonist. The format is cell-based.
Data set [12] can be described thus: Toxicity in Balb/c mouse xenografted with human DU-145 cells assessed as change in body weight at 10 mg/kg,ip administration once every 2 days for 20 days. It is filed as organism-based. The conditions noted are these: in vivo, 480 h, time 20 day.
Data set [13] is described as follows: Toxicity in Balb/c mouse xenografted with human DU-145 cells assessed as animal death at 10 mg/kg,ip administration once every 2 days for 20 days. The format is organism-based. The conditions noted are these: in vivo, 480 h, time 20 day.
A short description of data set [14]: Drug uptake in Balb/c mouse xenografted with human DU-145 cells assessed as increase in fluorescence intensity in tumor at 0.5 mg/kg,ip administration and measured at 17 hrs by imaging analysis. The format is ADME, organism-based. Conditions: in vivo.
Data set [15] has as its target Estrogen receptor beta (Homo sapiens) (UniProt Q92731). Nature of the data set: Binding affinity to ERbeta in human DU-145 cells at 10 uM incubated for 30 mins by immunofluorescence based assay. It is filed as cell-based. Conditions: filed as agonist.
For data set [16] the target is unchanged. The data set is described as follows: Binding affinity to ERbeta in human DU-145 cells assessed as increase in intracellular fluorescence signal at 10 uM incubated for 1 hr in presence of SAHA by imaging analysis. The format is cell-based.
Data set [17] relates to DU-145. The data set is described as follows: Antitumor activity against human DU-145 cells xenografted in Balb/c mouse assessed as reduction in tumor volume at 10 mg/kg,ip administration once every 2 days for 20 days. The format is functional, organism-based. Conditions: time 20.0 day.
The subject of data set [18] is DU-145. Nature of the data set: Antitumor activity against human DU-145 cells xenografted in Balb/c mouse assessed as inhibition of tumor growth at 10 mg/kg,ip administration once every 2 days for 20 days. The conditions noted are these: time 20.0 day. It is filed as functional, organism-based.
Data set [19] can be described thus: Drug uptake in Balb/c mouse xenografted with human DU-145 cells assessed as increase in fluorescence intensity in liver at 0.5 mg/kg,ip administration and measured at 17 hrs by imaging analysis. The conditions noted are these: in vivo. It is filed as ADME, organism-based.
The nature of data set [20]: Drug uptake in human DU-145 cells assessed as colocalization in nucleus by measuring fluorescence signal at 10 uM incubated for 30 mins by DAPI staining based fluorescence imaging analysis. The conditions noted are these: du-145, 0.5 h. It is filed as ADME, cell-based.
A short description of data set [21]: Drug uptake in Balb/c mouse xenografted with human DU-145 cells assessed as increase in fluorescence intensity in tumor at 0.5 mg/kg,ip administration and measured upto 24 hrs by imaging analysis. The format is ADME, organism-based. The conditions noted are these: in vivo.
The target in data set [22] is Estrogen receptor beta (Homo sapiens) (UniProt Q92731). Nature of the data set: Binding affinity to ERbeta in human DU-145 cells assessed as increase in intracellular fluorescence signal at 10 uM incubated for 30 mins in presence of estradiol by imaging analysis. It is filed as cell-based.
Sequence of Estrogen receptor beta (Homo sapiens) (Q92731 whole entry): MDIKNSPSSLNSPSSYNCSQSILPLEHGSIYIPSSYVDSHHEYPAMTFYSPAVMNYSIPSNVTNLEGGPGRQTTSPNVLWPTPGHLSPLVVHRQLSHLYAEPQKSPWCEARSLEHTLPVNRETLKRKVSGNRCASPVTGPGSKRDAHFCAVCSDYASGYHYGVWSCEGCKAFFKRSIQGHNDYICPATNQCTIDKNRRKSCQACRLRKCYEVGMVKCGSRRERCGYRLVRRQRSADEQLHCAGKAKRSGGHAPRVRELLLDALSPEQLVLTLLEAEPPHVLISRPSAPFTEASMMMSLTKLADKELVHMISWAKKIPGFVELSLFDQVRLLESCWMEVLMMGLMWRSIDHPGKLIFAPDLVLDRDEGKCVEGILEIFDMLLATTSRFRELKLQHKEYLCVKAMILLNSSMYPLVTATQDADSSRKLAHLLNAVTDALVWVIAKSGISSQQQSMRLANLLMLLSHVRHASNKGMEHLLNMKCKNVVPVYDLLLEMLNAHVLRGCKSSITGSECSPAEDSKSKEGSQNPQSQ

Sequence of Histone deacetylase 1 (Q13547 whole entry): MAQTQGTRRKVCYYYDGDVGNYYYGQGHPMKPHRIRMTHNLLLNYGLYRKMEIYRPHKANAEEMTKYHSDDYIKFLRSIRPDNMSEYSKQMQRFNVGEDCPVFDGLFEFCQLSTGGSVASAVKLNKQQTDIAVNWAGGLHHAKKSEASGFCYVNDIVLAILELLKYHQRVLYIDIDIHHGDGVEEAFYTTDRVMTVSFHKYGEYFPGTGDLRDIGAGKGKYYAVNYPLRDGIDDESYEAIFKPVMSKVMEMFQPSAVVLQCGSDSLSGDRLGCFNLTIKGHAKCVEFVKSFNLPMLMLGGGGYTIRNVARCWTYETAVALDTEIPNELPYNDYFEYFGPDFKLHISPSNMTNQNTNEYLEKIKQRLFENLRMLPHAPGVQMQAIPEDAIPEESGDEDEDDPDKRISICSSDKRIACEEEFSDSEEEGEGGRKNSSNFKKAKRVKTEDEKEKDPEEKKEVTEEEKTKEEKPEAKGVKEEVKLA
Description for in vitro: Antiproliferative activity against green monkey Vero cells assessed as inhibition of cell growth incubated for 3 to 5 days by CCK-8 assay

Turning to `N#CC(C#N)=C1C=C(/C=C/c2ccc(O)c(NC(=O)CCCCCCC(=O)NO)c2)Oc2ccccc21`, the outcome (in the data set with DU-145 [1]; in data set [11]; in the data set on DU-145 [17]; in the data set on DU-145 [18]) was Active. For the same compound, the IC50 result on Histone deacetylase 1 is “Not Active”; with DU-145 [8] it was 0.96 µM; in data set [10] it was 0.052 µM; in “in vitro” it was 6.13 µM. Besides, the Drug uptake entry in [2] is given as “Active”; in data set [3], “Not Active”; in data set [4], “Active”; in data set [5], “Not Active”; in [6], “Active”; in [9], “Not Active”. Also, the Drug uptake entry in data set [14] was “Active”; in data set [19], “Not Active”; in data set [20], “Active”; in data set [21] it was “Active”. Moreover, the Activity in [7] is 76.7%; in [12], “Non-Toxic”; in [13], “Non-Toxic”; in data set [15], 90.8%. Further, the result in data set [16] and in [22] was inactive.

On to `N#CC(C#N)=C1C=C(/C=C/c2ccc(O)c(NC(=O)CCCCCCC(=O)NO)c2)Oc2ccc(O)cc21`, for which the IC50 entry at Histone deacetylase 1 was “Not Active”; with DU-145 [8] it was 15.3 µM; in [10], 2.36 µM; in the data set “in vitro” it was over 100 µM. Moreover, the Drug uptake result in data set [4] and in [20] was “Active” each time. Moreover, the Activity in data set [7] is 97.6%; in data set [15], 96.3%.

For `O=C(CCCCCCC(=O)Nc1ccccc1)NO`, the result in the data set with DU-145 [1] and in the data set with DU-145 [17] was Active.

`N#CC(C#N)=C1C=C(/C=C/c2ccc(O)cc2)Oc2ccc(O)cc21`: the IC50 in the data set on DU-145 [8] came out at 0.27 µM; in “in vitro”, 1.45 µM.

Source of the values: ChEMBL document CHEMBL5505978, “Novel estrogen receptor β/histone deacetylase dual-targeted near-infrared fluorescent probes as theranostic agents for imaging and treatment of prostate cancer” (Eur J Med Chem, 2024).
